# Measurements: ChEMBL document CHEMBL5316293, “Novel Small-Molecule PD-L1 Inhibitor Induces PD-L1 Internalization and Optimizes the Immune Microenvironment” (J Med Chem, 2023)
# Calls of active or inactive are those of the source. No cut-off for these calls is given here.
# Assays:
# [1] = target: Programmed cell death protein 1/Programmed cell death 1 ligand 1 (Homo sapiens, UniProt Q9NZQ7); experiment: Inhibition of europium-labeled PD-1/biotinylated PD-L1 interaction (unknown origin) preincubated for 15 mins with PD-L1 followed by PD-1 addition and measured after 90 mins by TR-FRET assay; assay type: protein-complex assay
# [2] = target: Programmed cell death 1 ligand 1 (Homo sapiens, UniProt Q9NZQ7); experiment: Binding affinity to human PD-L1 assessed as dissociation constant by MST analysis
# [3] = Toxicity in ICR mouse assessed as body weight loss at 500 to 5000 mg/kg, po administered via gavage for 2 weeks; assay type: organism-based; conditions: in vivo, 336 h, dose 500-5000 mg/kg
# [4] = Toxicity in ICR mouse assessed as reduction in heart weight at 500 to 5000 mg/kg, po administered via gavage for 2 weeks; assay type: organism-based; conditions: in vivo, 336 h, dose 500-5000 mg/kg
# [5] = Toxicity in ICR mouse assessed as reduction in liver weight at 500 to 5000 mg/kg, po administered via gavage for 2 weeks; assay type: organism-based; conditions: in vivo, 336 h, dose 500-5000 mg/kg
# [6] = Toxicity in ICR mouse assessed as reduction in spleen weight at 500 to 5000 mg/kg, po administered via gavage for 2 weeks; assay type: organism-based; conditions: in vivo, 336 h, dose 500-5000 mg/kg
# [7] = Toxicity in ICR mouse assessed as reduction in lungs weight at 500 to 5000 mg/kg, po administered via gavage for 2 weeks; assay type: organism-based; conditions: in vivo, 336 h, dose 500-5000 mg/kg
# [8] = Toxicity in ICR mouse assessed as reduction in kidney weight at 500 to 5000 mg/kg, po administered via gavage for 2 weeks; assay type: organism-based; conditions: in vivo, 336 h, dose 500-5000 mg/kg
# [9] = Half life in ICR mouse at 5 mg/kg, iv; assay type: ADME, organism-based; conditions: in vivo
# MC38-hPD-L1 [10] = experiment: Antitumor activity against humanized mouse MC38-hPD-L1 cells implanted in hPD-1 knockin C57BL/6 mouse assessed as tumor growth inhibition at 10 mg/kg, ip administered for 12 days starting from day 7 post tumor implantation and measured every 2 days relative to control; assay type: functional; conditions: MC38-hPD-L1, 288 h, time 12 day, read-out: TGI
# MC38-hPD-L1 [11] = experiment: Antitumor activity against humanized mouse MC38-hPD-L1 cells implanted in hPD-1 knockin C57BL/6 mouse assessed as tumor growth inhibition at 25 mg/kg, ip administered for 12 days starting from day 7 post tumor implantation and measured every 2 days relative to control; assay type: functional; conditions: MC38-hPD-L1, 288 h, time 12 day, read-out: TGI
# [12] = Toxicity in hPD-1 knockin C57BL/6 mouse implanted with humanized mouse MC38-hPD-L1 cells assessed as reduction in body weight at 10 to 25 mg/kg, ip administered for 12 days starting from day 7 post tumor implantation and measured every 3 to 4 days; assay type: organism-based; conditions: in vivo, 288 h, dose 10-25 mg/kg, time 12 day
# [13] = Toxicity in hPD-1 knockin C57BL/6 mouse implanted with humanized mouse LLC-hPD-L1 cells assessed as reduction in body weight at 10 to 25 mg/kg, ip administered for 12 days starting from day 7 post tumor implantation and measured every 3 to 4 days; assay type: organism-based; conditions: in vivo, 288 h, dose 10-25 mg/kg, time 12 day
# MC38-hPD-L1 [14] = experiment: Antitumor activity against humanized mouse MC38-hPD-L1 cells implanted in hPD-1 knockin C57BL/6 mouse assessed as increase in M1 macrophages at 10 to 25 mg/kg, ip administered for 12 days starting from day 7 post tumor implantation by flow cytometry analysis; assay type: functional, organism-based; conditions: dose 10-25 mg/kg, time 12.0 day
# MC38-hPD-L1 [15] = experiment: Antitumor activity against humanized mouse MC38-hPD-L1 cells implanted in hPD-1 knockin C57BL/6 mouse assessed as increase in CD69-positive CD137-positive T cells at 10 to 25 mg/kg, ip administered for 12 days starting from day 7 post tumor implantation by flow cytometry analysis; assay type: functional, organism-based; conditions: dose 10-25 mg/kg, time 12.0 day
# MC38-hPD-L1 [16] = experiment: Antitumor activity against humanized mouse MC38-hPD-L1 cells implanted in hPD-1 knockin C57BL/6 mouse assessed as increase in GzmB level at 10 to 25 mg/kg, ip administered for 12 days starting from day 7 post tumor implantation by flow cytometry analysis; assay type: functional, organism-based; conditions: dose 10-25 mg/kg, time 12.0 day
# MC38-hPD-L1 [17] = experiment: Antitumor activity against humanized mouse MC38-hPD-L1 cells implanted in hPD-1 knockin C57BL/6 mouse assessed as increase in IFN-gamma level at 10 to 25 mg/kg, ip administered for 12 days starting from day 7 post tumor implantation by flow cytometry analysis; assay type: functional, organism-based; conditions: dose 10-25 mg/kg, time 12.0 day
# MC38-hPD-L1 [18] = experiment: Antitumor activity against humanized mouse MC38-hPD-L1 cells implanted in hPD-1 knockin C57BL/6 mouse assessed as reduction in MDSC cells at 10 to 25 mg/kg, ip administered for 12 days starting from day 7 post tumor implantation by flow cytometry analysis; assay type: functional, organism-based; conditions: dose 10-25 mg/kg, time 12.0 day
# MC38-hPD-L1 [19] = experiment: Antitumor activity against humanized mouse MC38-hPD-L1 cells implanted in hPD-1 knockin C57BL/6 mouse assessed as reduction in Treg cells at 10 to 25 mg/kg, ip administered for 12 days starting from day 7 post tumor implantation by flow cytometry analysis; assay type: functional, organism-based; conditions: dose 10-25 mg/kg, time 12.0 day
# LLC-hPD-L1 [20] = experiment: Antitumor activity against humanized mouse LLC-hPD-L1 cells implanted in hPD-1 knockin C57BL/6 mouse assessed as increase in CD8-positive T cells at 10 to 25 mg/kg, ip administered for 12 days starting from day 7 post tumor implantation by flow cytometry analysis; assay type: functional, organism-based; conditions: dose 10-25 mg/kg, time 12.0 day
# LLC-hPD-L1 [21] = experiment: Antitumor activity against humanized mouse LLC-hPD-L1 cells implanted in hPD-1 knockin C57BL/6 mouse assessed as increase in CD69-positive CD137-positive T cells at 10 to 25 mg/kg, ip administered for 12 days starting from day 7 post tumor implantation by flow cytometry analysis; assay type: functional, organism-based; conditions: dose 10-25 mg/kg, time 12.0 day
# LLC-hPD-L1 [22] = experiment: Antitumor activity against humanized mouse LLC-hPD-L1 cells implanted in hPD-1 knockin C57BL/6 mouse assessed as increase in GzmB level at 10 to 25 mg/kg, ip administered for 12 days starting from day 7 post tumor implantation by flow cytometry analysis; assay type: functional, organism-based; conditions: dose 10-25 mg/kg, time 12.0 day
# LLC-hPD-L1 [23] = experiment: Antitumor activity against humanized mouse LLC-hPD-L1 cells implanted in hPD-1 knockin C57BL/6 mouse assessed as increase in IFN-gamma level at 10 to 25 mg/kg, ip administered for 12 days starting from day 7 post tumor implantation by flow cytometry analysis; assay type: functional, organism-based; conditions: dose 10-25 mg/kg, time 12.0 day
# LLC-hPD-L1 [24] = experiment: Antitumor activity against humanized mouse LLC-hPD-L1 cells implanted in hPD-1 knockin C57BL/6 mouse assessed as reduction in MDSC cells at 10 to 25 mg/kg, ip administered for 12 days starting from day 7 post tumor implantation by flow cytometry analysis; assay type: functional, organism-based; conditions: dose 10-25 mg/kg, time 12.0 day
# LLC-hPD-L1 [25] = experiment: Antitumor activity against humanized mouse LLC-hPD-L1 cells implanted in hPD-1 knockin C57BL/6 mouse assessed as reduction in Treg cells at 10 to 25 mg/kg, ip administered for 12 days starting from day 7 post tumor implantation by flow cytometry analysis; assay type: functional, organism-based; conditions: dose 10-25 mg/kg, time 12.0 day
# MC38-hPD-L1 [26] = experiment: Antitumor activity against humanized mouse MC38-hPD-L1 cells implanted in BALB/c nude mouse assessed as reduction in tumor growth at 10 to 25 mg/kg, ip administered for 10 days starting from day 6 post tumor implantation and measured every 2 days; assay type: functional, organism-based; conditions: dose 10-25 mg/kg, time 10.0 day
# Homo sapiens [27] = species: Homo sapiens; experiment: Internalization of PD-L1 in cytoplasm of human RKO cells assessed as increase in PD-L1 concentration in cytoplasm at 1 micromol/L incubated for 6 hrs by fluorescence microscopy; assay type: functional, cell-based; conditions: dose 1.0 µmol/L
# Homo sapiens [28] = species: Homo sapiens; experiment: Internalization of PD-L1 in cytoplasm of human RKO cells assessed as decrease in PD-L1 concentration in cell membrane at 1 micromol/L incubated for 6 hrs by fluorescence microscopy; assay type: functional, cell-based; conditions: dose 1.0 µmol/L
# Programmed cell death 1 ligand 1, sequence (Q9NZQ7 whole entry): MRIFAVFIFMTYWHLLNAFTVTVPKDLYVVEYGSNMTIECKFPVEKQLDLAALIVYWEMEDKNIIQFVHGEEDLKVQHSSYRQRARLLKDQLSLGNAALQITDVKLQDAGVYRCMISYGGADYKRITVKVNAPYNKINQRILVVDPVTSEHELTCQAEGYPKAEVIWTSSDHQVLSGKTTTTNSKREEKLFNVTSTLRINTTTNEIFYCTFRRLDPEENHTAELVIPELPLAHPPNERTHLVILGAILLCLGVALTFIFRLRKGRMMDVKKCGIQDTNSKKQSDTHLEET
# Programmed cell death protein 1/Programmed cell death 1 ligand 1, sequence (Q15116 whole entry): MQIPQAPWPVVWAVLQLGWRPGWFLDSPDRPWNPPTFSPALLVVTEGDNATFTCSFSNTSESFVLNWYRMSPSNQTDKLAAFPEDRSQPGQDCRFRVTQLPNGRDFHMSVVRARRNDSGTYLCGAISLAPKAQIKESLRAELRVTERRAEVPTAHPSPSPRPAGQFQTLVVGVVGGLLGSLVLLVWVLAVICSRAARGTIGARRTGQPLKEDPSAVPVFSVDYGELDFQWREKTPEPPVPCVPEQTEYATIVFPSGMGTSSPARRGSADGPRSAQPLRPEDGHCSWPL
# Programmed cell death protein 1/Programmed cell death 1 ligand 1, sequence (Q9NZQ7 whole entry): as the sequence (Q9NZQ7 whole entry) above
structure (smiles),measurement,setting,value
COc1cc2c(cc1CN[C@@H](CO)C(=O)O)C(=O)N(c1cccc(-c3ccccc3)c1C)C2=O,IC50,[1],6.1 nM
same,Kd,[2],71.4 nM
same,Activity,[3],Non-Toxic
same,Activity,[4],Non-Toxic
same,Activity,[5],Non-Toxic
same,Activity,[6],Non-Toxic
same,Activity,[7],Non-Toxic
same,Activity,[8],Non-Toxic
same,half-life,[9],9.78 h
same,inhibition in vivo at 10 mg/kg,MC38-hPD-L1 [10],65.9%
same,inhibition in vivo at 25 mg/kg,MC38-hPD-L1 [11],88.8%
same,Activity,[12],Non-Toxic
same,Activity,[13],Non-Toxic
same,Activity,MC38-hPD-L1 [14],Active
same,Activity,MC38-hPD-L1 [15],Active
same,Activity,MC38-hPD-L1 [16],Active
same,Activity,MC38-hPD-L1 [17],Active
same,Activity,MC38-hPD-L1 [18],Active
same,Activity,MC38-hPD-L1 [19],Active
same,Activity,LLC-hPD-L1 [20],Active
same,Activity,LLC-hPD-L1 [21],Active
same,Activity,LLC-hPD-L1 [22],Active
same,Activity,LLC-hPD-L1 [23],Active
same,Activity,LLC-hPD-L1 [24],Active
same,Activity,LLC-hPD-L1 [25],Active
same,Activity,MC38-hPD-L1 [26],inactive
same,Activity,Homo sapiens [27],Active
same,Activity,Homo sapiens [28],Active
